Key:
NLRP3 [1] = target: T1, NLRP3 (Homo sapiens, UniProt Q96P20); experiment: THP-1 cells pyroptosis assay; type: cell-based; parameters: Seed THP-1 cells (25,000 cells/well) containing 1.0 μg/ml LPS; host or cells: THP-1 cells, LPS-primed, nigericin-stimulated; details: 1.0 μg/ml LPS, compound 3 hrs, nigericin 5 μM 1 hr, resazurin readout
Experimental: THP-1 cells (ATCC #TIB-202) were grown in RPMI containing L-glutamine (Gibco #11835) supplemented with 1 mM sodium pyruvate (Sigma #S8636) and penicillin (100 units/ml)/streptomycin (0.1 mg/ml) (Sigma #P4333) in 10% Fetal Bovine Serum (FBS) (Sigma #F0804). The cells were routinely passaged and grown to confluency (˜10^6 cells/ml). On the day of the experiment, THP-1 cells were harvested and resuspended into RPMI medium (without FBS). The cells were then counted and viability (>90%) checked by Trypan blue (Sigma #T8154). Appropriate dilutions were made to give a concentration of 625,000 cells/ml. To this diluted cell solution was added LPS (Sigma #L4524) to give a […] Final Assay Concentration (FAC). 40 μl of the final preparation was aliquoted into each well of a 96-well plate. The plate thus prepared was used for compound screening.
The following method step-by-step assay was followed for compound screening. • 1. Seed THP-1 cells (25,000 cells/well) containing 1.0 μg/ml LPS in 40 μl of RPMI medium (without FBS) in 96-well, black walled, clear bottom cell culture plates coated with poly-D-lysine (VWR #734-0317) • 2. Add 5 μl compound (8 points half-log dilution, with 10 μM top dose) or vehicle (DMSO 0.1% FAC) to the appropriate wells • 3. Incubate for 3 hrs at 37° C., 5% CO2 • 4. Add 5 μl nigericin (Sigma #N7143) (FAC 5 μM) to all wells • 5. Incubate for 1 hr at 37° C., 5% CO2 • 6. At the end of the incubation period, spin plates at 300×g for 3 mins and remove supernatant • 7. Then add 50 μl of resazurin (Sigma #R7017) (FAC 100 μM resazurin in RPMI medium without FBS) and incubate plates for a further 1-2 hrs at 37° C. and 5% CO2 • 8. Plates were read in an Envision reader at Ex 560 nm and Em 590 nm • 9. IC50 data is fitted to a non-linear regression equation (log inhibitor vs response-variable slope 4-parameters) 96-well Plate Map

NLRP3 [2] = target: T1, NLRP3; experiment: Human whole blood IL-1β release assay; type: cell-based; parameters: Human whole blood in Li-heparin tubes was obtained from healthy donors; from tissue; host or cells: human whole blood from healthy volunteer donors, LPS-primed, nigericin-stimulated; details: 1 μg/ml LPS, compound 3 hrs, nigericin 10 μM 1 hr, IL-1β in supernatant (AlphaLisa), read-out: HWB IC50
Experimental: For systemic delivery, the ability to inhibit NLRP3 when the compounds are present within the bloodstream is of great importance. For this reason, the NLRP3 inhibitory activity of a number of compounds in human whole blood was investigated in accordance with the following protocol.
Human whole blood in Li-heparin tubes was obtained from healthy donors from a volunteer donor panel. • 1. Plate out 80 μl of whole blood containing 1 μg/ml of LPS in 96-well, clear bottom cell culture plate (Corning #3585) • 2. Add 10 μl compound (8 points half-log dilution with 10 μM top dose) or vehicle (DMSO 0.1% FAC) to the appropriate wells • 3. Incubate for 3 hrs at 37° C., 5% CO2 • 4. Add 10 μl nigericin (Sigma #N7143) (10 μM FAC) to all wells • 5. Incubate for 1 hr at 37° C., 5% CO2 • 6. At the end of the incubation period, spin plates at 300×g for 5 mins to pellet cells and remove 20 μl of supernatant and add to 96-well v-bottom plates for IL-1β analysis (note: these plates containing the supernatants can be stored at −80° C. to be analysed at a later date) • 7. IL-1β was measured according to the manufacturer protocol (Perkin Elmer-AlphaLisa IL-1 Kit AL220F-5000) • 8. IC50 data is fitted to a non-linear regression equation (log inhibitor vs response-variable slope 4-parameters)

T1 sequence (Q96P20 whole entry): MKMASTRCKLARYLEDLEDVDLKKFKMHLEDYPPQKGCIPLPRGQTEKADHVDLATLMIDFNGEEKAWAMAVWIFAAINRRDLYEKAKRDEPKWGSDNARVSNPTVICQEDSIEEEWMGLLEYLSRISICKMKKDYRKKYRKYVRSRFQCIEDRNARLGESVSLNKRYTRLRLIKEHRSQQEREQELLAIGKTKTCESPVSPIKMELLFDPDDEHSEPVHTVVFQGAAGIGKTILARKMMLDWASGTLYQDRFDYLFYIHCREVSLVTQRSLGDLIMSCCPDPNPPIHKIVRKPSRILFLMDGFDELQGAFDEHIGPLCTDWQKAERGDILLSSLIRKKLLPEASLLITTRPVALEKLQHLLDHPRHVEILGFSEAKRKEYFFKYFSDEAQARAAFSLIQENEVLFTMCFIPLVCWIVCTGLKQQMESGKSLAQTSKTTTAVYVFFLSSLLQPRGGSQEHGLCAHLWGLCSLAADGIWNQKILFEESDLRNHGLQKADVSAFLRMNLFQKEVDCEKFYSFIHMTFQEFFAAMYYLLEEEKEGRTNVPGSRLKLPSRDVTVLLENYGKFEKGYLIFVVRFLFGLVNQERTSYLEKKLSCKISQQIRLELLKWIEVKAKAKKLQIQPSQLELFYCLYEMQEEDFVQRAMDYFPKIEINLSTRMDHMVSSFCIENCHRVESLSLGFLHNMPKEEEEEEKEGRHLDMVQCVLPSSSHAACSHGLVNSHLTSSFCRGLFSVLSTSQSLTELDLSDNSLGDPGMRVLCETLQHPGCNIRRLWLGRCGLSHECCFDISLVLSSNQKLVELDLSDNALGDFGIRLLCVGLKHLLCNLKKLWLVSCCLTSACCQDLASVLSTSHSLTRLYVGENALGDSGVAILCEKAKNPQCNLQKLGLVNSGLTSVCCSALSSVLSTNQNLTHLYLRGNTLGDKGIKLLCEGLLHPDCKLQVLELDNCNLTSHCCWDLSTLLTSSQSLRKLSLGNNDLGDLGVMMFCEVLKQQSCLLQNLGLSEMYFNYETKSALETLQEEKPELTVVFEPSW

Compound	IC50 (NLRP3 [1])	IC50 (NLRP3 [2])
CN(C)CC12CCCCOc3cc(ccn3)-c3ccc4c(c3Nc3nnc([nH]3)S(=O)(=O)N(CC1)C2)CCC4 (stereo not shown) [Example 21, 20-[(dimethylamino)methyl]-25-oxa-16λ^6-thia-11,13,14,17,27,32-hexaazahexacyclo[24.3.1.1^12,15.1^17,20.0^2,10.0^5,9]dotriaconta-1(29),2,4,9,12,14,26(30),27-octaene-16,16-dioxide]	≤ 1000 nM	–
CN1CCCOc2cc(ccn2)-c2ccc3c(c2Nc2nnc([nH]2)S(=O)(=O)N2CCC1CC2)CCC3 [Example 1, 26-methyl-22-oxa-2λ^6-thia-1,4,5,7,20,26,33-heptazahexacyclo-[25.2.2.1^3,6.1^17,21.0^8,16.0^9,13]tritriaconta-3,6(33),8,13,15,17,19,21(32)-octaene 2,2-dioxide]	≤ 5000 nM	≤ 5000 nM
O=S1(=O)c2nnc([nH]2)Oc2c(ccc3c2CCC3)-c2ccnc(c2)OCCCN2CCC3(C2)CN1C3 [Example 23, 11,26-dioxa-16λ^6-thia-13,14,17,22,28,34-hexaazaheptacyclo-[25.3.1.1^12,15.1^17,19.1^19,22.0^2,10.0^5,9]tetratriaconta-1(30),2,4,9,12,14,27(31),28-octaene-16,16-dioxide]	≤ 5000 nM	–
CC1(C)COc2cc(ccn2)-c2ccc3c(c2Nc2nnc([nH]2)S(=O)(=O)c2ccn1n2)CCC3 [Example 6, 21,21-dimethyl-23-oxa-16λ^6-thia-11,13,14,20,25,29,30-heptazahexacyclo-[22.3.1.1^12,15.1^17,20.0^2,10.0^5,9]triaconta-1(27),2,4,9,12(30),14,17(29),18,24(28),25-decaene 16,16-dioxide]	≤ 5000 nM	–
O=S1(=O)c2nnc([nH]2)Nc2c(ccc3c2CCC3)-c2ccnc(c2)OCC2CN(C2)C2CCN1CC2 [Example 18, 6-oxa-26λ^6-thia-2,8,21,23,24,27,32-heptaazaheptacyclo-[25.2.2.1^2,4.1^7,11.1^22,25.0^12,20.1^15,19]tetratriaconta-7(33),8,10,12,14,19,22,24-octaene-26,26-dioxide]	≤ 5000 nM	–
CN1CCCCOc2cc(ccn2)-c2ccc3c(c2Nc2nnc([nH]2)S(=O)(=O)N2CCC1CC2)CCC3 [Example 13, 27-methyl-22-oxa-2λ^6-thia-1,4,5,7,20,27,34-heptaazahexacyclo-[26.2.2.1^3,6.1^17,21.0^8,16.0^9,13]tetratriaconta-3,5,8,13,15,17,19,21(33)-octaene-2,2-dioxide]	≤ 1000 nM	–
O=S1(=O)c2nnc([nH]2)Nc2c(ccc3c2CCC3)-c2ccnc(c2)OCCCN2C[C@@H]3C[C@H]2CN31 [Example 22, (19S,21S)-27-oxa-16λ^6-thia-11,13,14,17,23,29,33-heptaazaheptacyclo-[26.3.1.1^12,15.0^2,10.0^5,9.0^17,21.0^19,23]tritriaconta-1(31),2,4,9,12,14,28(32),29-octaene-16,16-dioxide]	≤ 5000 nM	–
CN(C)CC12CCCCOc3cc(ccn3)-c3ccc4c(c3Nc3nnc([nH]3)S(=O)(=O)N(C1)C2)CCC4 [Example 16, 19-[(dimethylamino)methyl]-24-oxa-16λ^6-thia-11,13,14,17,26,31-hexaazahexacyclo[23.3.1.1^12,15.1^17,19.0^2,10.0^5,9]hentriaconta-1(28),2,4,9,12,14,25(29),26-octaene-16,16-dioxide]	≤ 1000 nM	–
CC1(C)CCOc2cc(ccn2)-c2ccc3c(c2Nc2nnc([nH]2)S(=O)(=O)c2ccn1n2)CCC3 [Example 7, 21,21-dimethyl-24-oxa-16λ^6-thia-11,13,14,20,26,30,31-heptazahexacyclo-[23.3.1.1^12,15.1^17,20.0^2,10.0^5,9]hentriaconta-1(28),2,4,9,12,14,17(30),18,25(29),26-decaene 16,16-dioxide]	≤ 10000 nM	–

Now from value to compound:

IC50 (NLRP3 [1])	IC50 (NLRP3 [2])	Compound
≤ 500 nM	–	O=S1(=O)c2nnc([nH]2)Nc2c(ccc3c2CCC3)-c2ccnc(c2)OCCCN2CCOCC23CCN1CC3 [Example 20]
≤ 500 nM	≤ 500 nM	CN1CCOc2cc(ccn2)-c2ccc3c(c2Nc2nnc([nH]2)S(=O)(=O)N2CC[C@@H](C1)C2)CCC3 [Example 12, (20S)-22-methyl-25-oxa-16λ^6-thia-11,13,14,17,22,27,32-heptaazahexacyclo[24.3.1.1^12,15.1^17,20.0^2,10.0^5,9]dotriaconta-1(29),2,4,9,12,14,26(30),27-octaene-16,16-dioxide]
≤ 500 nM	–	CN1CCOc2cc(ccn2)-c2ccc3c(c2Nc2nnc([nH]2)S(=O)(=O)N2CC[C@H](C1)C2)CCC3 [Example 14, (20R)-22-methyl-25-oxa-16λ^6-thia-11,13,14,17,22,27,32-heptaazahexacyclo[24.3.1.1^12,15.1^17,20.0^2,10.0^5,9]dotriaconta-1(29),2,4,9,12,14,26(30),27-octaene-16,16-dioxide]
≤ 100 nM	≤ 100 nM	O=S1(=O)c2nnc([nH]2)Nc2c(ccc3c2CCC3)-c2ccnc(c2)OCCCN2CCC3(C2)CN1C3 [Example 2, 26-oxa-16λ^6-thia-11,13,14,17,22,28,34-heptazaheptacyclo-[25.3.1.1^12,15.1^17,19.1^19,22.0^2,10.0^5,9]tetratriaconta-1(30),2,4,9,12,14,27(31),28-octaene 16,16-dioxide]
≤ 100 nM	≤ 500 nM	Cc1cc2c(c3c1-c1ccnc(c1)OCCCN1CCC4(C1)CN(C4)S(=O)(=O)c1nnc([nH]1)N3)CCC2 [Example 4, 3-methyl-26-oxa-16λ^6-thia-11,13,14,17,22,28,34-heptazaheptacyclo-[25.3.1.1^12,15.1^17,19.1^19,22.0^2,10.0^5,9]tetratriaconta-1(30),2,4,9,12,14,27(31),28-octaene 16,16-dioxide]
≤ 500 nM	–	O=S1(=O)c2nnc([nH]2)Nc2c(ccc3c2CCC3)-c2ccnc(c2)OCCCCN2CCC3(C2)CN1C3 [Example 19, 27-oxa-16λ^6-thia-11,13,14,17,22,29,35-heptaazaheptacyclo-[26.3.1.1^12,15.1^17,19.1^19,22.0^2,10.0^5,9]pentatriaconta-1(31),2,4,9,12,14,28(32),29-octaene-16,16-dioxide]
≤ 100 nM	–	O=S1(=O)c2nnc([nH]2)Nc2c(ccc3c2CCC3)-c2ccnc(c2)OCCCN2CCC23CCN1CC3 [Example 15, 8-oxa-28λ^6-thia-4,10,23,25,26,29,34-heptaazaheptacyclo-[27.2.2.1^9,13.1^24,27.0^1,4.0^14,22.0^17,21]pentatriaconta-9(35),10,12,14,16,21,24,26-octaene-28,28-dioxide]
≤ 500 nM	–	CN1CCCOc2cc(ccn2)-c2ccc3c(c2Nc2nnc([nH]2)S(=O)(=O)N2CC[C@H]1C2)CCC3 [Example 17, (20S)-21-methyl-25-oxa-16λ^6-thia-11,13,14,17,21,27,32-heptaazahexacyclo[24.3.1.1^12,15.1^17,20.0^2,10.0^0,9]dotriaconta-1(29),2,4,9,12,14,26(30),27-octaene-16,16-dioxide]
≤ 100 nM	–	CC(C)c1cc(F)cc2c1Nc1nnc([nH]1)S(=O)(=O)N1CC3(CCN(CCCOc4cc-2ccn4)C3)C1 [Example 24, 4-fluoro-6-(propan-2-yl)-23-oxa-13λ^6-thia-8,10,11,14,19,25,31-heptaazahexacyclo[22.3.1.1^9,12.1^14,16.1^16,19.0^2,7]hentriaconta-1(27),2(7),3,5,9,11,24(28),25-octaene-13,13-dioxide]
